# According to patent publication US4254285A, “1-Hydroxymethyl-1-1-oxo prostane derivatives of the E and F series” (American Cyanamid Company, priority 1979, dated 1981):
# Like-named read-outs stand apart in the source and are kept apart here.
# How the values were obtained:
# [1] = assay type: in vivo, rat
# Description: (§1) Male Wistar rats (Royal Hart, New Hampton, N.Y.), weighing 190-210 g are distributed among control and treatment groups (5 rats/group) and housed one rat per cage. During the 52 hour test period, the rats are permitted free access to food and drinking water for the first 33 hours but are fasted overnight prior to sacrifice. Indomethacin is suspended (4 mg/ml) in a 1.5% starch-phosphate buffer solution (SPBS). 1,9-dioxo-11α,16-dihydroxy-16-methyl-1-hydroxymethyl-13-transprostene is dissolved at 10 mg/ml in ethanol and then diluted in SPBS to 0.1 mg/ml or to a lower concentration as required. The indomethacin suspension is injected subcutaneously (10 mg/kg) and the prostaglandin suspension is given by gavage (0.5 mg/kg or less) b.i.d. on day 0 and 1. Rats receive only one dose of prostaglandin and indomethacin on day 2 and 6 hours later are killed with chloroform. The stomachs are dissected, opened along the greater curvature, and rinsed briefly in tap water. They are then spread, mucosal surface facing upward and pinned onto uniform size corks (2.5 inch diameter) individually numbered on the back. The identification number for each stomach is unknown to the investigator and the stomachs are randomly graded according to the following scheme:
# (§2) ^a Treatment is B.I.D. on days 0 and 1, and once on day 2, six hours
# (§3) prior to sacrifice for scoring.
# [2] = tested on: indomethacin-induced gastric ulcers; assay type: in vivo, rat
# Description: as §1
# 1--Petechial hemorrhage, or pin-point ulcers
# 2--One or two small ulcers or hemorrhagic erosions
# 3--Many areas of hemorrhage erosion or ulcers, a few large
# 4--Massive areas of hemorrhagic erosion or many ulcers, mainly large
# as §2, §3
# [3] = tested on: indomethacin-induced intestinal ulcers; assay type: in vivo, rat
# Description: as §1
# Intestines are also removed and examined for the presence of ulcers, which are graded according to the scheme outlined below.
# 1--Mucosa thin, petechial hemorrhage
# 2--"Blow-outs", when intestine inflated with air
# 3--Few ulcers. Gut more fragile than normal, tears along line of mesentery attachements when removed
# 4--Many large perforating lesions. Adhesions. Gut hemorrhagic and very fragile. Tears readily and cannot be removed intact. Graded in situ.
# as §2, §3
# [4] = tested on: gastric secretion; experiment: Gastric anti-secretory test, Heidenhain pouch, histamine-stimulated; assay type: in vivo, dog; conditions: oral 100 mg/Kg
# Description: Unanesthetized mongrel dogs weighing 10-15 Kg are used. The animals have a surgically prepared denervated (Heidenhain) pouch which drains by gravity through a titanium cannula. These animals are trained to stand quietly in a Pavlov support. Gastric secretion is stimulated at the lowest rate giving stable secretion (25-40% of maximal) with histamine acid phosphate, 30-50 μg/Kg/hr. Under such stimulation, a stable gastric secretory output can generally be maintained for a period of at least 3 hours.
# Gastric juice is collected continuously during secretory studies and pooled into 15-minute collections. Determination of collection volume, pH and titratable acidity is performed. Acid is determined by titrating an aliquot of gastric sample with 0.1 N NaOH to pH 7.0 using an automatic titrator.
# Drugs are administered on a background of submaximal gastric secretory stimulation and the results compared with control secretory studies without the use of drug. Depending upon the duration of action of a particular drug, it may be possible for a single drug-secretory study to serve as its own control. The route of drug administration is oral administration into the main stomach.
# For example, one of the PGE compounds of this invention 1,9-dioxo-11α,16-dihydroxy-16-methyl-1-hydroxymethyl-5-trans prostadiene on administration into the stomach of one of these dogs at a dose of […] gives the results shown hereinbelow in Table D. The data in Table D is the average of four tests in one dog.
# [5] = .02 mg/kg P.O. with indomethacin 10 mg/kg subcut.
# [6] = .1 mg/kg P.O. with indomethacin 10 mg/kg subcut.
# [7] = .5 mg/kg P.O. with indomethacin 10 mg/kg subcut.
# [8] = 0 min., average of four tests in one dog
structure (smiles),measurement,setting,value
CCCCC(C)(O)CC=CC1C(O)CC(=O)C1CCCCCCC(=O)CO (stereo not drawn),Hematocrit (Mean ± S.E.M.),[1]; [5],35.6 ± 1.9
same,Hematocrit (Mean ± S.E.M.),[1]; [6],41.1 ± 2.4
same,Hematocrit (Mean ± S.E.M.),[1]; [7],40.0 ± 1.4
same,Gastric Ulcer Score (Mean ± S.E.M.),[2]; [5],1.9 ± 0.4
same,Gastric Ulcer Score (Mean ± S.E.M.),[2]; [6],1.7 ± 0.3
same,Gastric Ulcer Score (Mean ± S.E.M.),[2]; [7],2.1 ± 0.4
same,Intestinal Ulcer Score (Mean ± S.E.M.),[3]; [5],3.5 ± 0.2
same,Intestinal Ulcer Score (Mean ± S.E.M.),[3]; [6],2.7 ± 0.2
same,Intestinal Ulcer Score (Mean ± S.E.M.),[3]; [7],2.0 ± 0.4
"CCCCC(C)(O)CC=CC1C(O)CC(=O)C1CC=CCCCC(=O)CO (stereo not drawn) [1,9-dioxo-11α,16-dihydroxy-16-methyl-1-hydroxymethyl-5-cis-13-trans-prostadiene]",Acid,[4]; [8],0.43 meg/15 min.
same,Volume of gastric juice,[4]; [8],3.4 mL
same,Acid,[4]; 15 min.,0.35 meg/15 min.
same,Volume of gastric juice,[4]; 15 min.,2.6 mL
same,Acid,[4]; 30 min.,0.22 meg/15 min.
same,Volume of gastric juice,[4]; 30 min.,1.5 mL
same,Acid,[4]; 45 min.,0.20 meg/15 min.
same,Volume of gastric juice,[4]; 45 min.,1.3 mL
same,Acid,[4]; 60 min.,0.09 meg/15 min.
same,Volume of gastric juice,[4]; 60 min.,0.7 mL
same,Acid,[4]; 75 min.,0.13 meg/15 min.
same,Volume of gastric juice,[4]; 75 min.,0.9 mL
same,Acid,[4]; 90 min.,0.21 meg/15 min.
same,Volume of gastric juice,[4]; 90 min.,1.5 mL
same,Acid,[4]; 105 min.,0.27 meg/15 min.
same,Volume of gastric juice,[4]; 105 min.,1.9 mL
same,Acid,[4]; 120 min.,0.40 meg/15 min.
same,Volume of gastric juice,[4]; 120 min.,2.7 mL
